From paper PMC13500670, “The U1 snRNP protein U1C and Helix H of U1 snRNA are critical for small molecule splicing modulator function” (Nature Communications, 2026)

Assays:
[1] = system: U1 snRNA nucleotide 1-16 + artificial HTT 5' ss oligo; assay: FP: U1 snRNA nucleotide 1-16 + artificial HTT 5' ss oligo with -1A bulge (Supplementary Fig. 5F); format: binding, human
Method: (§1) To ensure the presence of a −1A bulge in the RNA duplex, we extended the U1 snRNA to nucleotide 1–16 and generated an artificial HTT 5′ ss oligo that added 4 additional nucleotides upstream of the −4C nucleotide to ensure stable base pairing upstream of the potential −1A bulge.
(§2) All of 5′-FAM labeled RNA oligos used in this study were synthesized and purified by IDT (USA). Fluorescence polarization (FP) assays were performed in binding buffer (20 mM HEPES pH 7.5, 1 mM MgCl2, 200 mM KCl, 0.01% TritonX-100, 0.1%PEG3350, 2%DMSO) at room temperature using a Envision HTS Plate Reader system (Revvity). […] The equilibrium dissociation constants (Kd) of binding reaction were calculated using the following single-site binding model formula in GraphPad Prism: y=START+(END−START)x/kD+x where x and y represent the concentration of U1 snRNP (or U1 snRNA) and the polarization value measured respectively, START represents the polarization value of protein-free nucleic acid probe, END represents the maximum polarization value when U1 snRNP (or U1 snRNA) binds to the fluorescently labeled 5′ ss oligo. […]

[2] = system: cassette exon / GA/GU iExon inclusion, HEK293 cells, scr siRNA; assay: RNA-seq splicing analysis, compound dose response, scrambled (mock) siRNA; format: cell-based, human
Text: (§3) Skipped exons are highly enriched for noncanonical 5′ ss sequences (on either the intronic or exonic side), which account for 90% of skipped exons (Supplementary Fig. 8C). For example, among skipped exons with a canonical exonic 5′ ss sequence, 74% contain noncanonical intron sequence. These observations are consistent with the previous published role for U1C stabilization of the U1 snRNA-pre-mRNA duplex at the 5′ ss[25]–[28]. […] We will refer to these as class I exons for clarity in later discussion.
(§4) We next examined the effect of U1C knockdown on compound-mediated splicing. […] We next used the complete dose response to calculate the effective concentration at which deltaPSIcompound-DMSO is 30 (EC-dPSI30).
(§5) HEK293T cells were grown in DMEM media with 10% FBS. 500,000 cells in 1.75 mL of media were plated into a 6-well plate for approximately 6 h. Either siRNA negative control (ThermoFisher Silencer^TM Negative control #2, AM4613) or U1C siRNA (ThermoFisher Silencer^TM Select Pre-designed siRNA, S13225) were transfected for a final concentration of 25 nM using Invitrogen Lipofectamine RNAiMax (13778-150). In brief, 10 μL 5 μM siRNA was added to 115 μL of OptiMEM, while 5 μL Lipofectamine added to 120 μL OptiMEM for 5 minu before mixing the solutions and incubating for 20 min. 250 μL of Lipofectamine:siRNA solution was gentle added to the 1.75 mL cells. After 24 h post-transfection, cells were treated with 10 μL compound resuspended in DMSO. […] Each compound-treated experimental condition was treated and collected in duplicate, while four DMSO only treated samples per siRNA transfection were collected. RNA was isolated using KingFisher^TM Apex instrument and the MagMAX™ mirVana™ Total RNA Isolation Kit (A27828) by Thermo Fisher according to manufacturer’s protocol. Isolated RNA was submitted to Admera Health for library preparation (polyA selected, stranded) and mRNA-sequencing and >20 M 150 bp pair-end reads were returned.
RNAseq and splicing analysis were described earlier using DEDseq (https:// github.com/liwc01/DEDSeq[18]) with minor modifications. RNA sequencing reads were mapped to human genome (hg19) using STAR (version 2.7.10b); only uniquely mapped reads (with MAPQ > 10) with <5 nt/100 nt mismatches and properly paired reads were used. For splicing analysis, all junction reads (read with a gap in alignment indicating splicing) were used, including the ones mapped to unannotated splice sites. Reads were counted for different exons (for cassette exon [CE]) or exonic regions (for A5′ss or A3′ss). For each splicing event, a percent-spliced-in (PSI) value was calculated using the percent of average read number supporting the inclusion among all reads supporting either the inclusion or the exclusion. A minimum of 10 for the denominator of PSI calculation was required. Otherwise, a “NA” value would be generated. PSI values for biological replicates were averaged, and the PSI difference between the two treatment groups was calculated. For a statistical test, a 2 × 2 read counts table was made for each event, with rows for reads supporting inclusion or exclusion, and columns for the two comparing sample groups. Fisher’s exact test was used for the statistical tests. For biological replicates, each pair of the testing and control sample was analyzed by Fisher’s exact test and the geometric mean of all P-values was reported as a final P-value. PSI change (deltaPSI) of >10% (or < −10%) and P < 0.001 was used to select splicing events being regulated by the treatment. PSI calculation, Fisher’s exact test were performed using R (4.0.5). 5′ ss composition analysis was performed as described in ref. [25]. Potency of splicing modulator was determined by plotting dPSI and identifying the concentration at which the change in PSI reached 30% and reported as EC_dPSI30.

[3] = system: 5' end of U1 snRNA + HTT 5' ss oligo with -1A deleted; assay: FP: 5' end of U1 snRNA + HTT 5' ss oligo with -1A deleted (Supplementary Fig. 5D); format: binding, human
Method: as §1, §2

[4] = target: T1, native U1 snRNP + HTT 5' ss oligo (Homo sapiens, UniProt P09234); assay: FP: native U1 snRNP binding to HTT 5' ss oligo; conditions: Fig. 1C; 10 μM branaplam
T1 construct: we added a large excess of full-length U1C (800 nM) expressed in and purified from E. coli; endogenous in cells; host or cells: HeLa-S3 with CRISPR knock-in of a C-terminal HTP tag on U1A; the added U1C came from E. coli
Method: (§6) We engineered a protein A-tag on U1A in HeLa cells using CRISPR-Cas9 and purified native U1 snRNP using the protein A tag and IgG resin (Supplementary Fig. 1A). […] Since U1C is weakly associated with U1 snRNP and may fall off at low U1 snRNP concentrations, we added a large excess of full-length U1C (800 nM) expressed in and purified from E. coli in all binding reactions unless otherwise stated.
(§7) U1A-HTP cells were adapted to grow in suspension in Joklik’s MEM (Sigma) supplemented with 5% (v/v) newborn calf serum and 1× Pluronic™ F-68 (Gibco). […]
as §2

[5] = system: SMN2 exon 7 skipping, HEK293T cells; assay: SMN2 splicing minigene reporter assay (luciferase); format: cell-based; conditions: Homo sapiens, HEK-293T, Fig. 3A, 36 h, 0.012 to 9 µM
Method: Exon 7 inclusion places the GLuc gene out of frame, thereby reducing luciferase activity. […] Transfection was performed in 10 cm dishes using Lipofectamine 2000 (Thermo, #11668019) according to the manufacturer’s protocol. […] Compounds were dispensed in duplicate across a 1:3 serial dilution series ranging from 0.012 to 9 µM. Following a 36 h incubation at 37 °C, luciferase activity was assessed by adding 12 µL of a custom luciferase reagent to each well. The luciferase reagent (12 mL total volume) consisted of 60 µL 50× coelenterazine substrate (Nanolight, #320), 3 mL Nanolight GLuc buffer, 30 µL 10% Triton X-100 (Thermo, #A16046.AP), and 8.9 mL deionized water. Plates were shaken at 600 rpm for 6 min, and luminescence was measured using a Cytation 5 multimode plate reader (BioTek). Half-maximal effective concentration (EC50) values were calculated using GraphPad Prism (v10.4) with four-parameter nonlinear regression curve fitting.

[6] = system: cassette exon / GA/GU iExon inclusion, HEK293 cells, U1C KD; assay: RNA-seq splicing analysis, compound dose response, U1C knockdown; format: cell-based, human
Text: as §3, §4, §5
RNAseq and splicing analysis were described earlier using DEDseq (https:// github.com/liwc01/DEDSeq[18]) with minor modifications. RNA sequencing reads were mapped to human genome (hg19) using STAR (version 2.7.10b); only uniquely mapped reads (with MAPQ > 10) with <5 nt/100 nt mismatches and properly paired reads were used. For splicing analysis, all junction reads (read with a gap in alignment indicating splicing) were used, including the ones mapped to unannotated splice sites. Reads were counted for different exons (for cassette exon [CE]) or exonic regions (for A5′ss or A3′ss). For each splicing event, a percent-spliced-in (PSI) value was calculated using the percent of average read number supporting the inclusion among all reads supporting either the inclusion or the exclusion. A minimum of 10 for the denominator of PSI calculation was required. Otherwise, a “NA” value would be generated. PSI values for biological replicates were averaged, and the PSI difference between the two treatment groups was calculated. For a statistical test, a 2 × 2 read counts table was made for each event, with rows for reads supporting inclusion or exclusion, and columns for the two comparing sample groups. […] For biological replicates, each pair of the testing and control sample was analyzed by Fisher’s exact test and the geometric mean of all P-values was reported as a final P-value. […] Potency of splicing modulator was determined by plotting dPSI and identifying the concentration at which the change in PSI reached 30% and reported as EC_dPSI30.

[7] = system: full length U1 snRNA + HTT 5' ss oligo with -1A deleted; assay: FP: full-length U1 snRNA + HTT 5' ss oligo with -1A deleted (Supplementary Fig. 5E); format: binding, human
Method: as §1, §2

[8] = system: splicing events in human SH-SY5Y cells; conditions: 24 nM (approximately 2 times the IC50 for HTT), 24 h; cited from earlier work
[9] = system: SMN2 pre-mRNA + native or reconstituted U1 snRNP; assay: Pull-down of native or reconstituted U1 snRNP by immobilized SMN2 pre-mRNA; format: binding, human; conditions: Fig. 1F; 50 μM Branaplam vs 0.5% DMSO
Text: In this assay, we immobilized Minx (as a positive control with a canonical 5′ ss) or SMN2 pre-mRNA containing the weak 5′ ss of exon 7 on amylose resin, pulled down either native or reconstituted U1 snRNP, and analyzed the RNAs in the pulldown samples as a surrogate of the amount of U1 snRNP bound to the pre-mRNA.
The SMN2 pre-mRNA fragment used in pull down experiment contains 100 nt up and downstream of the 5′ ss of SMN2 intron 7 followed by three copies of MS2 tag. It was cloned downstream of a T7 promoter in the Sp72 vector. The SMN2 pre-mRNA was in vitro transcribed and purified by 7 M Urea denaturing gel.
The complex was then incubated with amylose resin and washed with the same buffer. The resins were treated in 5 μl buffer containing 1 mg/ml proteinase K at 37 °C for 30 min to release the RNAs. The resulting samples were run on 6% denaturing polyacrylamide gel and stained with Sybr Gold to visualize the RNAs.

[10] = target: T2, native U1 snRNP + SMN2 5' ss oligo (Homo sapiens, UniProt P09234); assay: FP: native U1 snRNP binding to SMN2 5' ss oligo with DMSO or compound; conditions: Fig. 1B; 10 μM branaplam
T2 construct: we added a large excess of full-length U1C (800 nM) expressed in and purified from E. coli; endogenous in cells; host or cells: HeLa-S3 with CRISPR knock-in of a C-terminal HTP tag on U1A; the added U1C came from E. coli
Method: as §6, §7, §2

[11] = system: c12orf4 iExon 1a, DENND4A, SCO1, DPH1 iExon inclusion; assay: End-point RT-PCR of iExon inclusion, scr control versus U1C KD; format: cell-based, human; conditions: c12orf4 iExon 1a and DENND4A; 3uM, 1uM, 250nm, 100nM
Method: A total of 500,000 SH-SY5Y cells were plated in 6-well tissue culture plates. After 4 h of recovery, cells were transfected with final 100 nM siRNA (silencer select s13212 or negative control No.2 from Ambion) using Lipofectamin RNAi Max (ThermoFisher) according to the manufacturer’s protocol. After 24 h incubation, cells were treated with splicing modulating compounds for additional 24 h. Cells were lysed in RLT buffer ( + beta-mercaptoethanol) and RNA was extracted using the RNeasy kit (Qiagen) according to the manufacturer’s protocol.
Knockdown was confirmed by RT-qPCR using TaqMan assays (Hs00863364_gH, Hs02758991_g1, from ThermoFisher). Splicing changes were confirmed by endpoint PCR using the primer sets listed in Supplementary Table 1. Relative amounts of U1C RNA were calculated for control knockdown vs. U1C knockdown (normalized to GAPDH expression level).
HEK293 cells were transfected for siRNA in 6-well plates, similarly as for RNA-sequencing above. […] Overexpression of 1.5 μg pMEV-2HA-EV or pMEV-U1C-2HA was carried out with Lipofectamine3000 (L3000008) 6 h later. RNA was harvested 24 h later, extracted as above, and reverse transcribed with a Qiagen QuantiTect RT kit (205311). […]

CC1(C)CC(Oc2ccc(-c3ccc(-c4cn[nH]c4)cc3O)nn2)CC(C)(C)N1 [Branaplam, branaplam]
effect of compound on binding affinity [1]: no effect | PSI of CMSS1 iExon ([2]; 5nM branaplam): 6 | PSI of WNK4 iExon ([2]; 5nM branaplam): 6.7 | PSI of PDXDC1 iExon ([2]; 5nM, mock, DMSO baseline […]): 2.9 PSI | geomean pEC_dPSI30 for all GA/GU iExons ([2]; Fig. 8C, mock knockdown, -log10 of compound concentration when dPSI achieves 30%): 6.61 | number of exons with GA/GU 5' ss significantly induced with deltaPSI compound-DMSO >10 ([2]; highest concentration of branaplam): approximately 1200 | saturation PSI of PDXDC1 iExon ([2]; highest dose, mock and U1C KD reach similar saturation): ~50 | effect of compound on binding [3]: not improved | increase of binding affinity by compound versus DMSO [4]: about twofold | EC50 [5]: 59.6 nM | PSI of PDXDC1 iExon ([6]; 5nM, U1C KD, DMSO baseline […]): 2.6 PSI | U1CKD Log10 effect ([6]; Fig. 8C picture, pEC-dPSI30 mock versus U1C KD): -0.51 | geomean pEC_dPSI30 for all GA/GU iExons ([6]; Fig. 8C, U1C KD): 6.10 | effect of compound on binding [7]: not improved | number of splicing events affected [8]: 165 | amount of native or reconstituted U1 snRNP pulled down by SMN2 pre-mRNA [9]: significantly increased | increase of binding affinity by compound versus DMSO [10]: about twofold | effect of U1C knockdown on compound potency by end-point PCR [11]: reduces
